Test results: PubChem BioAssay AID1259407 (Chemical Carcinogenesis Research Information System (CCRIS), 2018)
Active and inactive are the calls of the source. How the calls were made is not given here.

System: CCRIS mutagenicity, Ames/micronucleus/aberration tests
Assay: CCRIS mutagenicity studies
Description: The CCRIS database contains chemical records with carcinogenicity, mutagenicity, tumor promotion, and tumor inhibition test results. It was developed by the National Cancer Institute (NCI). Data are derived from studies cited in primary journals, current awareness tools, NCI reports, and other sources. Test results have been reviewed by experts in carcinogenesis and mutagenesis.
CCRIS provides historical information from the years 1985 - 2011. It is no longer updated.
This is an archive assay for CCRIS mutagenicity studies.

[1] = Test System: AMES SALMONELLA TYPHIMURIUM, Strain/Indicator: TA98, Metabolic Activation: NONE, Method: PREINCUBATION

Structure (SMILES): Cc1cnc[nH]1
- mutagenic call (End Point: In vivo micronucleus, Test System: Bone marrow polychromatic erythrocytes, Species: Mouse, Strain/Sex: B6C3F1/Male, Route: Intraperitoneal): inactive; positive in trial 1; negative in trial 2; percentage of pces declined with incre
- mutagenic call (End Point: In vivo micronucleus, Test System: Polychromatic erythrocytes and Normochromatic erythrocytes, Species: Mouse, Strain/Sex: B6C3F1/Female, Route: Oral): inactive; negative (no increase in micronucleus frequencies at all levels; percentage of
- mutagenic call (End Point: In vivo micronucleus, Test System: Polychromatic erythrocytes and Normochromatic erythrocytes, Species: Mouse, Strain/Sex: B6C3F1/Male, Route: Oral): inactive; negative (no increase in micronucleus frequencies at all levels; percentage of
- mutagenic call [1]: inactive; negative
- mutagenic call (Test System: AMES SALMONELLA TYPHIMURIUM, Strain/Indicator: TA98, Metabolic Activation: RAT LIVER S-9, PHENOBARBITAL AND BETA-NAPHTHOFLAVONE, Method: PREINCUBATION): inactive; negative
- mutagenic call (Test System: AMES SALMONELLA TYPHIMURIUM, Strain/Indicator: TA100, Metabolic Activation: NONE, Method: PREINCUBATION): inactive; negative
- mutagenic call (Test System: AMES SALMONELLA TYPHIMURIUM, Strain/Indicator: TA100, Metabolic Activation: RAT LIVER S-9, PHENOBARBITAL AND BETA-NAPHTHOFLAVONE, Method: PREINCUBATION): inactive; negative
- mutagenic call (Test System: AMES SALMONELLA TYPHIMURIUM, Strain/Indicator: TA102, Metabolic Activation: NONE, Method: PREINCUBATION): inactive; negative
- mutagenic call (Test System: AMES SALMONELLA TYPHIMURIUM, Strain/Indicator: TA102, Metabolic Activation: RAT LIVER S-9, PHENOBARBITAL AND BETA-NAPHTHOFLAVONE, Method: PREINCUBATION): inactive; negative
- mutagenic call (Test System: AMES SALMONELLA TYPHIMURIUM, Strain/Indicator: TA104, Metabolic Activation: NONE, Method: PREINCUBATION): inactive; negative
- mutagenic call (Test System: AMES SALMONELLA TYPHIMURIUM, Strain/Indicator: TA104, Metabolic Activation: RAT LIVER S-9, PHENOBARBITAL AND BETA-NAPHTHOFLAVONE, Method: PREINCUBATION): inactive; negative
- mutagenic call (Test System: AMES SALMONELLA TYPHIMURIUM, Strain/Indicator: TA1535, Metabolic Activation: NONE, Method: PREINCUBATION): inactive; negative
- mutagenic call (Test System: AMES SALMONELLA TYPHIMURIUM, Strain/Indicator: TA1535, Metabolic Activation: RAT LIVER S-9, PHENOBARBITAL AND BETA-NAPHTHOFLAVONE, Method: PREINCUBATION): inactive; negative
- mutagenic call (Test System: AMES SALMONELLA TYPHIMURIUM, Strain/Indicator: TA1537, Metabolic Activation: NONE, Method: PREINCUBATION): inactive; negative
- mutagenic call (Test System: AMES SALMONELLA TYPHIMURIUM, Strain/Indicator: TA1537, Metabolic Activation: RAT LIVER S-9, PHENOBARBITAL AND BETA-NAPHTHOFLAVONE, Method: PREINCUBATION): inactive; negative
- mutagenic call (Test System: Ames Salmonella typhimurium, Strain/Indicator: TA97, Metabolic Activation: Hamster, liver, S-9, Aroclor 1254, Method: Preincubation): inactive; negative
- mutagenic call (Test System: Ames Salmonella typhimurium, Strain/Indicator: TA97, Metabolic Activation: None, Method: Preincubation): inactive; negative
- mutagenic call (Test System: Ames Salmonella typhimurium, Strain/Indicator: TA97, Metabolic Activation: Rat, liver, S-9, Aroclor 1254, Method: Preincubation): inactive; negative
- mutagenic call (Test System: Ames Salmonella typhimurium, Strain/Indicator: TA98, Metabolic Activation: Hamster, liver, S-9, Aroclor 1254, Method: Preincubation): inactive; negative
- mutagenic call (Test System: Ames Salmonella typhimurium, Strain/Indicator: TA98, Metabolic Activation: None, Method: Preincubation): inactive; negative
- mutagenic call (Test System: Ames Salmonella typhimurium, Strain/Indicator: TA98, Metabolic Activation: Rat, liver, S-9, Aroclor 1254, Method: Preincubation): inactive; negative
- mutagenic call (Test System: Ames Salmonella typhimurium, Strain/Indicator: TA100, Metabolic Activation: Hamster, liver, S-9, Aroclor 1254, Method: Preincubation): inactive; negative
- mutagenic call (Test System: Ames Salmonella typhimurium, Strain/Indicator: TA100, Metabolic Activation: None, Method: Preincubation): inactive; negative
- mutagenic call (Test System: Ames Salmonella typhimurium, Strain/Indicator: TA100, Metabolic Activation: Rat, liver, S-9, Aroclor 1254, Method: Preincubation): inactive; negative
- mutagenic call (Test System: Ames Salmonella typhimurium, Strain/Indicator: TA1535, Metabolic Activation: Hamster, liver, S-9, Aroclor 1254, Method: Preincubation): inactive; negative
- mutagenic call (Test System: Ames Salmonella typhimurium, Strain/Indicator: TA1535, Metabolic Activation: None, Method: Preincubation): inactive; negative
- mutagenic call (Test System: Ames Salmonella typhimurium, Strain/Indicator: TA1535, Metabolic Activation: Rat, liver, S-9, Aroclor 1254, Method: Preincubation): inactive; negative
- mutagenic call (Test System: E.COLI, Strain/Indicator: WP2UVRA/PKM101, Metabolic Activation: NONE, Method: PREINCUBATION): inactive; negative
- mutagenic call (Test System: E.COLI, Strain/Indicator: WP2UVRA/PKM101, Metabolic Activation: RAT LIVER S-9, PHENOBARBITAL AND BETA-NAPHTHOFLAVONE, Method: PREINCUBATION): inactive; negative
- mutagenic call (Test System: E.COLI, Strain/Indicator: WP2UVRA, Metabolic Activation: NONE, Method: PREINCUBATION): inactive; negative
- mutagenic call (Test System: E.COLI, Strain/Indicator: WP2UVRA, Metabolic Activation: RAT LIVER S-9, PHENOBARBITAL AND BETA-NAPHTHOFLAVONE, Method: PREINCUBATION): inactive; negative

Structure (SMILES): Cc1c([N+](=O)[O-])cnc2c1nc1c(C)cccn12
- mutagenic call (Test System: AMES SALMONELLA TYPHIMURIUM, Strain/Indicator: TA98, Metabolic Activation: NONE, Method: STANDARD PLATE): active; positive
- mutagenic call (Test System: AMES SALMONELLA TYPHIMURIUM, Strain/Indicator: TA98, Metabolic Activation: RAT, LIVER, CYTOSOL, AROCLOR 1254, Method: STANDARD PLATE): active; positive
- mutagenic call (Test System: AMES SALMONELLA TYPHIMURIUM, Strain/Indicator: TA98, Metabolic Activation: RAT, LIVER, MICROSOMES, AROCLOR 1254, Method: STANDARD PLATE): active; positive
- mutagenic call (Test System: AMES SALMONELLA TYPHIMURIUM, Strain/Indicator: TA98, Metabolic Activation: RAT, LIVER, S-9, AROCLOR 1254, Method: STANDARD PLATE): active; positive

Structure (SMILES): Cc1cccc(C(=O)ON(OCc2ccccc2)C(=O)c2ccccc2)c1
- mutagenic call (Test System: AMES SALMONELLA TYPHIMURIUM, Strain/Indicator: TA100, Metabolic Activation: NONE, Method: STANDARD PLATE): active; positive
- mutagenic call (Test System: AMES SALMONELLA TYPHIMURIUM, Strain/Indicator: TA100, Metabolic Activation: RAT, S-9, AROCLOR, Method: STANDARD PLATE): active; positive

Structure (SMILES): CCOP(=S)(OCC)Oc1nc(Cl)n(C(C)C)n1
- mutagenic call [1]: active; positive
- mutagenic call (Test System: AMES SALMONELLA TYPHIMURIUM, Strain/Indicator: TA98, Metabolic Activation: RAT, LIVER, S-9, AROCLOR 1254, Method: PREINCUBATION): active; positive
